# From PMC9706574, “A Versatile and Sustainable Multicomponent Platform for the Synthesis of Protein Degraders: Proof-of-Concept Application to BRD4-Degrading PROTACs” (Journal of Medicinal Chemistry, 2022)
# Legend:
# [1] = Metabolic stability in mouse liver microsomes (MLM); type: in vitro ADME
# Protocol: To this aim, we evaluated the metabolic stability of the five selected PROTACs in mouse liver microsomes (MLM).
# Mouse liver microsomes (MLM) (pooled male mouse CD-1, protein concentration: 20 mg/mL) were purchased from Corning B.V. Life Sciences (Amsterdam, The Netherlands). The standard incubation mixture (250 μL final volume) was carried out in a 50 mM Tris (tris[hydroxymethyl]aminomethane) buffer (pH 7.4) containing 150 mM KCl, 1.5 mM, 3.3 mM MgCl2, 1.3 mM NADPNa2, 3.3 mM glucose 6-phosphate, 0.4 units/mL glucose 6-phosphate dehydrogenase, acetonitrile as cosolvent (1% of total volume), and the substrate (50 μM). After pre-equilibration of the mixture, an appropriate volume of MLM suspension was added to give a final protein concentration of 1.0 mg/mL. The mixture was shaken for 60 min at 37 °C. Control incubations were carried out without the presence of an NADPH-regenerating system or microsomes. Each incubation was stopped by the addition of 250 μL of ice-cold acetonitrile, vortexed, and centrifuged at 13 000 rpm for 5 min. The supernatants were analyzed by LC-UV.
# [2] = Thermodynamic aqueous solubility; type: physicochemical
# Protocol: Saturated solutions were prepared by dissolving the tested compounds in 0.1 M phosphate-buffered saline (pH = 7.4) or 0.01 N HCl solutions and sonicated for 30 s. After equilibration on an orbital shaker at 25 °C for 2 h, the solutions were centrifuged at 13 000 rpm for 5 min and filtered through a 0.2 μm regenerated cellulose (RC) syringe filter. A 400 μL aliquot of each filtrate was diluted with 100 μL of acetonitrile and analyzed by LC-UV. When the measured peak area was out of the calibration range (5–100 μM), the sample was further diluted in water–acetonitrile 1:1 mixture.
# [3] = set-up: method as in PMID 33026811; conditions: physiological pH, in 3 h; cited from earlier work
Structure (SMILES),metabolic stability in MLM (in words) [1],"solubility thermodynamic at 2 h ([2]; 0.01 N HCl solution, HCl 0.01 N, pH 2.0, 25 °C) [µM]",solubility at physiological pH (in words) ([2]; pH 7.4),"solubility thermodynamic at 2 h ([2]; phosphate-buffered saline, PBS 0.1 M, pH 7.4, 25 °C) [µM]",melting point,hydrolytic degradation [3]
"Cc1sc2c(c1C)C(c1ccc(Cl)cc1)=N[C@@H](CC(=O)OCC(=O)NCCCCOc1cccc3c1C(=O)N(C1CCC(=O)NC1=O)C3=O)c1nnc(C)n1-2 (stereo partly drawn) [Compound 37, 2-((4-((2-(2,6-Dioxopiperidin-3-yl)-1,3-dioxoisoindolin-4-yl)oxy)butyl)amino)-2-oxoethyl2-((S)-4-(4-chlorophenyl)-2,3,9-trimethyl-6H-thieno[3,2-f][1,2,4]triazolo[4,3-a][1,4]diazepin-6-yl)acetate]",highly stable in MLM,18,the least soluble,8,105.2 to 107 °C (dec.),–
O=C1CCC(N2C(=O)c3ccccc3C2=O)C(=O)N1 (stereo not drawn) [thalidomide],–,–,–,–,–,about 30%
